Patent US4824843A, “Substituted amide inhibitors of cholesterol absorption” (Warner-Lambert Company, priority 1987, dated 1989)
Where a name gives a salt, the structure may show the parent alone.

target: T1, acyl-CoA: cholesterol acyltransferase (ACAT) (Oryctolagus cuniculus, UniProt G1SFD9); assay: In vitro inhibition of cholesterol esterification by ACAT (cholesteryl oleate formation), rabbit intestinal microsomal fraction; format: biochemical; settings: endogenous cholesterol of rabbit intestinal microsomal fraction and exogenous 14C-oleoyl-CoA; read-out: IC50 (concentration of test compound required to inhibit cholesteryl oleate formation to 50% of control)
T1 construct: rabbit intestinal microsomal fraction; from tissue; host or cells: rabbit intestinal microsomal fraction
T1 sequence (G1SFD9 1-524): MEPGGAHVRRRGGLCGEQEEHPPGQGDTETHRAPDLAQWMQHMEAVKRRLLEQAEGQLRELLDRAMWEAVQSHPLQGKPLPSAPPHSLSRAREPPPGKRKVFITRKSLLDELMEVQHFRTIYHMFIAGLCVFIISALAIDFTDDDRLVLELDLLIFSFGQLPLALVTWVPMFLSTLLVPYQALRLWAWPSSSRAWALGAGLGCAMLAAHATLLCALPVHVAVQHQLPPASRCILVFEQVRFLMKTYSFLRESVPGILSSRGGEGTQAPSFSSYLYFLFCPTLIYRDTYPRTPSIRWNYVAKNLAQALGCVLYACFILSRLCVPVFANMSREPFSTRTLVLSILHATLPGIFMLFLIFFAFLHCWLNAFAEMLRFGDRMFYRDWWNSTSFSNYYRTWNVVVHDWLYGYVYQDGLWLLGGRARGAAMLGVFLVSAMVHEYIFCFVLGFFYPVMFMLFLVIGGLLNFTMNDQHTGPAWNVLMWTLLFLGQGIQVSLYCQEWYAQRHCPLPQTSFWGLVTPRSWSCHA
Description: The compounds of the present invention were tested for their ability to inhibit the esterification of cholesterol by the enzyme acyl-CoA: cholesterol acyltransferase (ACAT). The data in the table below is expressed as IC50 values, i.e. the concentration of test compound required to inhibit cholesteryl oleate formation to 50% of control.
The in vitro test employed is more fully described in Field, F. J. and Salome, R. G., Biochemica et Biophysica Acta, 712, pp. 557-570 (1982). The assay evaluates the ability of a test compound to inhibit the esterification of cholesterol using endogenous cholesterol of a rabbit intestinal microsomal fraction and exogenous ^14 C-oleoyl-CoA as reactants.

Row | IC50 [µM] | Structure (SMILES)
1 | 20 | Cc1ccc(C)c(OCCCC(C)(C)C(=O)Nc2cccc(C3=NCCCO3)c2)c1 [Example 4, N-[3-(5,6-Dihydro-4H-1,3-oxazin-2-yl)phenyl]-5-(2,5-dimethylphenoxy)-2,2-dimethylpentanamide]
2 | 23 | Cc1ccc(C)c(OCCCC(C)(C)C(=O)Nc2cccc(-c3ncco3)c2)c1 [Example 4h, 5-(2,5-Dimethylphenoxy)-2,2-dimethyl-N-[3-(2-oxazolyl)phenyl]-pentanamide]
3 | 9 | COc1cc(OC)c(C2=NC(C)(C)CO2)cc1NC(=O)C(C)(C)CCCOc1cc(C)ccc1C [Example 4e, N-[5-(4,5-Dihydro-4,4-dimethyl-2-oxazolyl)-2,4-dimethoxyphenyl]-5-(2,5-dimethylphenoxy)-2,2-dimethylpentanamide]
4 | 9 | COc1ccc(C2=NC(C)(C)CO2)cc1NC(=O)C(C)(C)CCCOc1cc(C)ccc1C [Example 4b, N-[5-(4,5-Dihydro-4,4-dimethyl-2-oxazolyl)-2-methoxyphenyl]-5-(2,5-dimethylphenoxy)-2,2-dimethylpentanamide]
5 | 18 | COc1ccc(C2=NCCCO2)cc1NC(=O)C(C)(C)CCCOc1cc(C)ccc1C [Example 4f, N-[5-(5,6-Dihydro-4H-1,3-oxazin-2-yl)-2-methoxyphenyl]-5-(2,5-dimethylphenoxy)-2,2-dimethylpentanamide]
6 | 3.7 | COc1ccc(NC(=O)C(C)(C)CCCOc2cc(C)ccc2C)cc1CCC1=NC(C)(C)CO1 [Example 2, N-[3-[2-(4,5-Dihydro-4,4-dimethyl-2-oxazolyl)ethyl]-4-methoxyphenyl]-5-(2,5-dimethylphenoxy)-2,2-dimethylpentanamide]
7 | 19 | COc1ccc(NC(=O)C(C)(C)CCCOc2cc(C)ccc2C)cc1C1=NC(C)(C)CO1 [Example 4d, N-[3-(4,5-Dihydro-4,4-dimethyl-2-oxazolyl)-4-methoxyphenyl]-5-(2,5-dimethylphenoxy)-2,2-dimethylpentanamide]
8 | 24 | Cc1ccc(C)c(OCCCC(C)(C)C(=O)Nc2cccc(C3=NC(C)(C)CO3)c2C)c1 [Example 1, N-[3-(4,5-Dihydro-4,4-dimethyl-2-oxazolyl)-2-methylphenyl]-5-(2,5-dimethylphenoxy)-2,2-dimethylpentanamide]
9 | 10 | Cc1ccc(C)c(OCCCC(C)(C)C(=O)Nc2cccc(C3=NCCO3)c2C)c1 [Example 1c, N-[3-(4,5-Dihydro-2-oxazolyl)-2-methylphenyl]-5-(2,5-dimethylphenoxy)-2,2-dimethylpentanamide]
10 | 21 | Cc1ccc(C)c(OCCCC(C)(C)C(=O)Nc2cccc(-c3nnc(C)o3)c2)c1 [Example 5, 5-(2,5-dimethylphenoxy)-2,2-dimethyl-N-[3-(5-methyl-1,3,4-oxadiazol-2-yl)phenyl]pentanamide]
11 | 22 | Cc1ccc(C)c(OCCCC(C)(C)C(=O)Nc2cccc(C3=NC(C)(C)CO3)c2)c1 [Example 1a, N-[3-(4,5-Dihydro-4,4-dimethyl-2-oxazolyl)phenyl]-5-(2,5-dimethylphenoxy)-2,2-dimethylpentanamide]
12 | 1 | Cc1ccc(C)c(OCCCC(C)(C)C(=O)Nc2ccc(C)c(CC3=NC(C)(C)CO3)c2)c1 [Example 1d, N-[3-[(4,5-Dihydro-4,4-dimethyl-2-oxazolyl)methyl]-4-methylphenyl]-5-(2,5-dimethylphenoxy)-2,2-dimethylpentanamide]
13 | 5.5 | COc1ccc(CC2=NC(C)(C)CO2)cc1NC(=O)C(C)(C)CCCOc1cc(C)ccc1C [Example 3, N-[5-[(4,5-Dihydro-4,4-dimethyl-2-oxazolyl)methyl]-2-methoxyphenyl]-5-(2,5-dimethylphenoxy)-2,2-dimethylpentanamide]
14 | 8 | COc1ccc(/C=C/C2=NC(C)(C)CO2)cc1NC(=O)C(C)(C)CCCOc1cc(C)ccc1C [Example 2b, (E)-N-[5-[2-(4,5-Dihydro-4,4-dimethyl-2-oxazolyl)ethenyl]-2-methoxyphenyl]-5-(2,5-dimethylphenoxy)-2,2-dimethylpentanamide]
15 | 5.5 | Cc1ccc(C)c(OCCCC(C)(C)C(=O)Nc2cc(C3=NC(C)(C)CO3)ccc2C)c1 [Example 1b, N-[5-(4,5-Dihydro-4,4-dimethyl-2-oxazolyl)-2-methylphenyl]-5-(2,5-dimethylphenoxy)-2,2-dimethylpentanamide]
16 | 9.2 | Cc1ccc(C)c(OCCCC(C)(C)C(=O)Nc2cccc(OCC3=NC(C)(C)CO3)c2)c1 [Example 3a, N-[3-[(4,5-Dihydro-4,4-dimethyl-2-oxazolyl)methoxy]phenyl]-5-(2,5-dimethylphenoxy)-2,2-dimethylpentanamide]
17 | 13 | COC(=N)c1cccc(NC(=O)C(C)(C)CCCOc2cc(C)ccc2C)c1 [Example 4g, 5-(2,5-Dimethylphenoxy)-N-[3-(iminomethoxymethyl)phenyl]-2,2-dimethylpentanamide monohydrochloride]
18 | 0.8 | Cc1ccc(C)c(OCCCC(C)(C)C(=O)Nc2cc(CC3=NC(C)(C)CO3)ccc2C)c1 [Example 3b, N-[5-[(4,5-Dihydro-4,4-dimethyl-2-oxazolyl)methyl]-2-methylphenyl]-5-(2,5-dimethylphenoxy)-2,2-dimethylpentanamide]
19 | 9.4 | Cc1ccc(C)c(OCCCC(C)(C)C(=O)Nc2cccc(C=CC3=NC(C)(C)CO3)c2)c1 [Example 2a, N-[3-[2-(4,5-Dihydro-4,4-dimethyl-2-oxazolyl)ethenyl]phenyl]-5-(2,5-dimethylphenoxy)-2,2-dimethylpentanamide]
